Assay results from patent publication US20230093594A1, “PANTETHENOYLCYSTEINE DERIVATIVES AND USES THEREOF” (Comet Therapeutics, Inc., priority 2019, published 2023).

Key:
[1] = test system: Venular Endothelial cells (HUVEC) (4H system); assay: BioMAP 4H system (IL-4 and histamine, 24h); type: cell-based, human; settings: procedure of Example 42, 10 μM
Protocol: (§1) The BioMAP platform is an in vitro phenotypic profiling technology that screened the compounds of the present disclosure (hereafter indicated as test agents) in human primary cell-based systems modelling complex tissue and disease states. The BioMAP assays were performed using the Eurofin's BioMAP Technology Platform as referenced in below articles to model different diseases on primary cell-based model systems. These systems consisted of either single primary cell types or co-culture cells. Adherent cell types were cultured or co-cultured in 96 or 384-well plates until confluence followed by the addition of compounds prepared in DMSO at a final concentration of <0.1%. In each cell-based system, primary cells from heathy donors (2-6 donors) were pooled and treated with compounds at 1 and 10 μM dose 1h prior to stimulation and remain in culture as indicated in Example 41, Example 42, Example 43, Example 44, Example 45, Example 46, Example 47, Example 48, Example 49, Example 50, Example 51, Example 52.
Following the general procedure as described in Example 40, Venular Endothelial cells (HUVEC) (4H system) were treated with IL-4 and histamine for 24h to model Th2 driven allergy and autoimmunity in the presence or absence of compounds. […]

[2] = test system: Venular Endothelial cells (HUVEC) (3C system); assay: BioMAP 3C system (IL-1β, TNFα, IFNγ, 24h); type: cell-based, human; settings: procedure of Example 41 (3C), 10 μM
Protocol: as §1, with “In each cell-based system, primary cells from heathy donors (2-6 donors) were pooled and treated with compounds at 1 and 10 μM dose 1h prior to stimulation and remain in culture as indicated in Example 41, Example 42, Example 43, Example 44, Example 45, Example 46, Example 47, Example 48, Example 49, Example 50, Example 51, Example 52.” left out
Following the general procedure as described in Example 40, Venular Endothelial cells (HUVEC) (3C system) were treated with IL-1β, TNFα, IFNγ for 24h to model Th1 driven cardiovascular and chronic inflammation diseases in the presence or absence of the compounds. Biomarker read out were; Tissue Factor, ICAM-1, E-selectin, uPAR (CD87), IL-8, MIG, HLA-DR, proliferation and SRB (Sulfo-rhodamine i.e., staining for protein content).

[3] = test system: human primary cell-based systems; assay: BioMAP assay, general procedure of Example 40 (system not stated)
Protocol: as §1

[4] = test system: Dermal fibroblasts (HDF3CGF system); assay: BioMAP HDF3CGF system (IL-1β, TNFα, IFNγ, EGF, bFGF, PDGF-BB, 24h); type: cell-based, human; settings: procedure of Example 49 (HDF3CGF), 10 μM
Protocol: as §1
Following the general procedure as described in Example 40, Dermal fibroblasts (HDF3CGF system) were treated with IL-1β, TNFα and IFNγ, EGF, bFGF and PDGF-BB for 24h in the presence or absence of the compounds to model fibrosis and chronic inflammation. Biomarkers read out were; MCP-1, VCAM-1, ICAM-1, Collagen-I, Collagen-III, IP-10, I-TAC, IL-8, MIG, EGFR, M-CSF, MMP-1, PAI-1, SRB, TIMP-1, TIMP-2 and proliferation was measured for 72h.

[5] = test system: Bronchial epithelial cells (BE3C system); assay: BioMAP BE3C system (IL-1β, TNFα, IFNγ, 24h); type: cell-based, human; settings: procedure of Example 47 (BE3C), 10 μM
Protocol: as §1, with “In each cell-based system, primary cells from heathy donors (2-6 donors) were pooled and treated with compounds at 1 and 10 μM dose 1h prior to stimulation and remain in culture as indicated in Example 41, Example 42, Example 43, Example 44, Example 45, Example 46, Example 47, Example 48, Example 49, Example 50, Example 51, Example 52.” left out
Following the general procedure as described in Example 40, Bronchial epithelial cells (BE3C system) were treated with IL-1β, TNFα and IFNγ for 24h in the presence or absence of the compounds to model lung inflammation and chronic obstructive pulmonary disease (COPD). Biomarkers read out were; ICAM-1, uPAR, IP-10, I-TA C, IL-A, MIG, EGFR, HLA-DR, IL-1α, Keratin 8/18, MMP-1, MMP-9, PAI-1, SRB, tPA, uPA.

[6] = test system: Venular endothelial cells co-cultured with macrophages (Mphg system); assay: BioMAP Mphg system (TLR2 ligand, 24h); type: cell-based, human
Protocol: as §1
Following the general procedure as described in Example 40, Venular endothelial cells co-cultured with macrophages (Mphg system) and treated with TLR2 ligand for 24h in the presence or absence of the compounds to mimic cardiovascular inflammation, restenosis and chronic inflammation. Biomarkers read out were; MCP-1, MIP-1α, VCAM-1, CD40, E-selectin, CD69, IL-8, IL-1α, M-CSF, sIL-10 and SRB.

[7] = test system: Keratinocytes co-cultured with dermal fibroblast (KF3CT system); assay: BioMAP KF3CT system (IL-1β, TNFα, IFNγ, TGFβ, 24h); type: cell-based, human; settings: procedure of Example 50 (KF3CT), 1 μM
Protocol: as §1
Following the general procedure as described in Example 40, Keratinocytes were co-cultured with dermal fibroblast (KF3CT system) and treated with IL-1β, TNFα, IFNγ and TGFβ for 24h in the presence or absence of the compounds to model psoriasis, dermatitis and skin biology. Biomarkers read out were; MCP-1, ICAM-1, IP-10, IL-8, MIG, IL-1α, MMP-9, PAI, SRB, TIMP-2, uPA.

[8] = test system: Peripheral blood mononuclear cells co-cultured with B-cells (BT system); assay: BioMAP BT system (a-IgM and TCR ligands, 72h); type: cell-based, human; settings: procedure of Example 45 (BT)
Protocol: as §1
Following the general procedure as described in Example 40, Peripheral blood mononuclear cells were co-cultured with B-cells (BT system) were treated with either a-IgM and TCR ligands for 72h in the presence or absence of the compounds to model asthma, allergy, oncology and autoimmunity. Biomarkers read out were; B-cell proliferation, PBMC cytotoxicity, secreted IgG, sIL-17A, sIL-17F, siL-2, sIL-6 and s-TNFα.

[9] = test system: MMA Patient fibroblasts (TSI 3739); assay: Mitochondrial morphology imaging in MMA patient fibroblasts (TSI 3739); type: cell-based; settings: image compared with fragmented mitochondria in vehicle control
[10] = test system: Bronchial epithelial cells co-cultured with dermal fibroblast (BF4T system); assay: BioMAP BF4T system (TNFα and IL-4, 24h); type: cell-based, human; settings: procedure of Example 46 (BF4T), 10 μM
Protocol: as §1
Following the general procedure as described in Example 40, Bronchial epithelial cells were co-cultured with dermal fibroblast (BF4T system) and were treated with TNFα. and IL-4 for 24h in the presence or absence of the compounds to model asthma, allergy, fibrosis, lung inflammation. Biomarkers read out were; MCP-1, Eotaxin-3, VCAM-1, ICAM-1, CD90, IL-8, IL-la, keratin 8/18, MMP-1, MMP-3, MMP-9, PAI-1, SRB, tPA, uPA.

[11] = test system: MMA Patient fibroblasts (GM00371); assay: Mitochondrial morphology imaging in MMA patient fibroblasts (GM00371); type: cell-based; settings: image compared with fragmented mitochondria in vehicle control
[12] = test system: Peripheral blood mononuclear cells co-cultured with venular endothelial cells (HUVEC) (LPS system); assay: BioMAP LPS system (LPS, 24h); type: cell-based, human; settings: procedure of Example 43 (LPS)
Protocol: as §1
Following the general procedure as described in Example 40, Peripheral blood mononuclear cells co-cultured with venular endothelial cells (HUVEC) (LPS system) were stimulated with LPS for 24h in the presence or absence of compounds, to model cardiovascular disease and chronic inflammation. Biomarkers read out were; MCP-1, VCAM-1, Thrombomodulin, Tissue Factor, CD40, E-selectin, CD69, IL-8, IL-1α, M-CSF, sPGE2, SRB and TNFα.

[13] = test system: Peripheral blood mononuclear cells co-cultured with venular endothelial cells (Sag system); assay: BioMAP SAg system (T-cell ligands); type: cell-based, human; settings: procedure of Example 44 (SAg), 10 μM
Protocol: as §1, with “In each cell-based system, primary cells from heathy donors (2-6 donors) were pooled and treated with compounds at 1 and 10 μM dose 1h prior to stimulation and remain in culture as indicated in Example 41, Example 42, Example 43, Example 44, Example 45, Example 46, Example 47, Example 48, Example 49, Example 50, Example 51, Example 52.” left out
Following the general procedure as described in Example 40, Peripheral blood mononuclear cells were co-cultured with venular endothelial cells and treated with […] (T-cell ligands) (Sag system) in the presence or absence of compounds to model autoimmune and chronic inflammation Biomarkers read out were; MCP-1, CD38, CD40, E-selectin, CD69, IL-8, MIG, PBMC cytotoxicity, Proliferation and SRB.

[14] = procedure of Example 52 (Mphg), 10 μM

## COC(=O)CCC(=O)SC[C@H](NC(=O)CCNC(=O)[C@H](O)C(C)(C)CO)C(=O)OC [Compound 8, methyl 4-[[(2R)-2-[3-[(2R)-2,4-dihydroxy-3,3-dimethylbutanamido]propanamido]-3-methoxy-3-oxopropyl]sulfanyl]-4-oxobutanoate]
[1]
  % decrease in E-Selectin: ≥20%
[2]
  % decrease in IL-8: ≥10%
[3]; procedure of Example 40, 1 μM
  % decrease in Serum Amyloid A: ≥10%
  % decrease in VCAM-1: ≥10%
  % increase in Collagen I: ≥10%
[3]; procedure of Example 40, 10 μM
  % decrease in Proliferation: ≥10%
  % decrease in Thrombomodulin: ≥20%
  % increase in HLA-DR: ≥10%
  % increase in IL-6: ≥10%
[4]
  % decrease in TIMP-1: ≥10%
  % decrease in TIMP-2: ≥10%
  % increase in Collagen III: ≥20%
[5]
  % decrease in uPA: ≥10%
  % increase in PAI-I: ≥10%
[6]; procedure of Example 52 (Mphg), 1 μM
  % decrease in CD69: ≥20%
[6]; [14]
  % decrease in E-Selectin: ≥10%
  % decrease in IL-8: ≥20%
[6]; procedure of Example 52, 1 μM
  % decrease in α-SMA: ≥10%
  % increase in MMP-1: ≥10%
[7]
  % decrease in MMP-9: ≥10%
[8]; 1 μM
  % decrease in sTNFα: ≥10%
[8]; 10 μM
  % decrease in sIL-17: ≥20%
  % increase in sIL-2: ≥20%
[9]
  mitochondrial morphology (elongation and networking of mitochondria): elongation and networking of mitochondria promoted
[10]
  % decrease in IL-1α: ≥10%
  % decrease in MMP-9: ≥10%
  % increase in VCAM-1: ≥10%
[11]
  mitochondrial morphology (elongation and networking of mitochondria): elongation and networking of mitochondria promoted
[12]; 1 μM
  % decrease in IL-1α: ≥20%
[12]; 10 μM
  % decrease in IL-8: ≥20%
  % decrease in M-CSF: ≥10%
  % decrease in TissueFactor: ≥10%
  % increase in sTNFα: ≥10%
[13]
  % increase in CD69: ≥10%
